Measurements: article PMC6284238 (Neuron, 2017)

Target: T1, zebrafish SARM1-TIR (Danio rerio, UniProt F1QWA8)
T1 sequence (F1QWA8 552-695 limits assumed): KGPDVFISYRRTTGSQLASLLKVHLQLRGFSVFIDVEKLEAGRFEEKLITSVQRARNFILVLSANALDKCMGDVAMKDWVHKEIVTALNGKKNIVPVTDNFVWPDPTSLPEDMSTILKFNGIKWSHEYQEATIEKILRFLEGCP
Assay: NADase assay with HPLC, purified bacterial protein
Format: biochemical

`NC(=O)c1ccc[n+]([C@@H]2O[C@H](COP(=O)([O-])OP(=O)(O)OC[C@H]3O[C@@H](n4cnc5c(N)ncnc54)[C@H](O)[C@@H]3O)[C@@H](O)[C@H]2O)c1` [NAD^+] was tested, and the “NADase assay with HPLC, purified bacterial protein” value was “bacterially expressed mouse, zebrafish, and Drosophila SARM1-TIR domains also degrade NAD^+ in vitro”.
